From ChEMBL document CHEMBL1201862, “PubChem BioAssay data set” (2004)
Activity calls are given as the source filed them.

Columns and labels:
[1] = Shn3 3'UTR reporter inhibitors, dose response, cell-based, Clone20 osteoblasts, firefly luciferase, cherry-picked (AID 624132); type: functional;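 note: firefly luciferase luminescence from reporter carrying the Shn3 3'UTR in osteoblasts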
[2] = target: Heat shock protein HSP 90-alpha (Homo sapiens, UniProt P07900); type: functional, organism-based
[3] = tested on: INS1; assay: beta cell apoptosis inhibitors, cytokine rescue, dose response, luminescence, retest (AID 449756); type: functional, cell-based; details: Rattus norvegicus;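 note: cell death triggered by IL-1 beta plus TNF-alpha plus IFN-gamma mixture; protective hits raise ATP signal compared with cytokine alone wells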
[4] = NIH-3T3 fibroblast cytotoxicity, dose response, cytotoxicity control, cell-based, fluorescence, Alamar Blue, secondary assay (AID 2327); type: functional;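 note: NIH-3T3 mouse fibroblasts cultured with fluconazole at 8 µg/mL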
[5] = HepG2 cell cytotoxicity, dose response, cytotoxicity control for Shn3 inhibitor project, CellTiter-Glo, cherry-picked (AID 624134); type: functional, cell-based
[6] = control 3'UTR Renilla luciferase suppression, dose response, counter-screen for Shn3 inhibitor project, cell-based, Clone20-Shn3RL, cherry-picked (AID 624133); type: functional
[7] = target: Mitogen-activated protein kinase kinase kinase kinase 2 (Homo sapiens, UniProt Q12851); type: functional;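 note: measured as one member of a kinome-wide kinase panel, with MAP4K2 as the panel entry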
[8] = target: Serine/threonine-protein kinase TBK1 (Homo sapiens, UniProt Q9UHD2); assay: Navigating the Kinome. Panel member name: TBK1; type: functional
[9] = target: Leucine-rich repeat serine/threonine-protein kinase 2 (Homo sapiens, UniProt Q5S007); type: functional;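 note: value from a broad kinome-wide panel profiling study in which LRRK2 was one of the kinases tested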
[10] = target: Serine/threonine-protein kinase D3 (Homo sapiens, UniProt O94806); type: functional;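 note: determined within a kinase panel screen, with PRKCN as the panel member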
[11] = target: Dual specificity protein kinase CLK2 (Homo sapiens, UniProt P49760); type: functional
[12] = target: Macrophage colony-stimulating factor 1 receptor (Homo sapiens, UniProt P07333); type: functional;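 note: value comes from the Navigating the Kinome screening panel, CSF1R member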
[13] = target: Vascular endothelial growth factor receptor 2 (Homo sapiens, UniProt P35968); type: functional
[14] = target: LIM domain kinase 1 (Homo sapiens, UniProt P53667); assay: Navigating the Kinome. Panel member name: LIMK1; type: functional
[15] = target: Macrophage-stimulating protein receptor (Homo sapiens, UniProt Q04912); assay: Navigating the Kinome. Panel member name: MST1R; type: functional
[16] = target: BDNF/NT-3 growth factors receptor (Homo sapiens, UniProt Q16620); type: functional;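 note: NTRK2 measured as one member of a broad kinome-wide kinase profiling panel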
[17] = target: Tyrosine-protein kinase JAK2 (Homo sapiens, UniProt O60674); type: functional;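 note: JAK2 tested as one member of a kinase panel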
[18] = target: High affinity nerve growth factor receptor (Homo sapiens, UniProt P04629); type: functional;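 note: NTRK1 tested as one member of a kinome-wide profiling panel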
[19] = target: Tyrosine-protein kinase Fyn (Homo sapiens, UniProt P06241); type: functional
[20] = target: Serine/threonine-protein kinase pim-1 (Homo sapiens, UniProt P11309); type: functional
[21] = target: Serine/threonine-protein kinase TAO1 (Homo sapiens, UniProt Q7L7X3); type: functional
[22] = target: Glycogen synthase kinase-3 beta (Homo sapiens, UniProt P49841); type: functional;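 note: value comes from a broad kinome profiling panel, with GSK3B as the panel member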
[23] = target: Dual specificity protein kinase CLK4 (Homo sapiens, UniProt Q9HAZ1); type: functional
[24] = target: Receptor-type tyrosine-protein kinase FLT3 (Homo sapiens, UniProt P36888); type: functional;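 note: FLT3 was tested as one member of a kinome-wide kinase panel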
[25] = target: ALK tyrosine kinase receptor (Homo sapiens, UniProt Q9UM73); type: functional;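 note: ALK tested as one member of a kinase panel screen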
[26] = target: 5'-AMP-activated protein kinase catalytic subunit alpha-1 (Homo sapiens, UniProt Q13131); type: functional
[27] = target: T1, Aurora kinase A (Homo sapiens, UniProt O14965); type: functional;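 note: value from the Navigating the Kinome kinase panel profiling, panel entry STK6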
T1 sequence (O14965 whole entry): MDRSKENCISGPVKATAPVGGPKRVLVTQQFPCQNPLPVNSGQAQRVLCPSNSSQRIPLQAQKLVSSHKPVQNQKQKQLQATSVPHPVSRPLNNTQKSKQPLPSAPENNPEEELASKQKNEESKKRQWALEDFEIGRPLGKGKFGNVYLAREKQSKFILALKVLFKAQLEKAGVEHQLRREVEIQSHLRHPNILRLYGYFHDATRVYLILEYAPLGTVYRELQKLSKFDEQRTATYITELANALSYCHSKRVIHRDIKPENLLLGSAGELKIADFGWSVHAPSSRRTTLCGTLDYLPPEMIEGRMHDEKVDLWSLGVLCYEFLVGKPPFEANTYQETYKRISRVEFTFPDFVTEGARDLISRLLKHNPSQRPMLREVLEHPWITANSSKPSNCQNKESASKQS

[28] = target: T2, cAMP-dependent protein kinase catalytic subunit PRKX (Homo sapiens, UniProt P51817); type: functional
T2 sequence (P51817 whole entry): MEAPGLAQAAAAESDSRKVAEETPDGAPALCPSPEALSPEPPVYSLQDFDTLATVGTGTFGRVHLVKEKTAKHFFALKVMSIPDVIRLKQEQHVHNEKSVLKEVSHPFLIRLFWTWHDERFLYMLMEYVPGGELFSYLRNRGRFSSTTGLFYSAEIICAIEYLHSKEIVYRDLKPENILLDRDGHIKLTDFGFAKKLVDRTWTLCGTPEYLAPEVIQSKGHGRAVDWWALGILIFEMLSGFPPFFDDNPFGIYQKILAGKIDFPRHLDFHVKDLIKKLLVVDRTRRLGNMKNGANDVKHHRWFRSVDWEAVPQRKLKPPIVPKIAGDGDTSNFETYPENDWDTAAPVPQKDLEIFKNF

[29] = target: Cyclin-dependent kinase 7 (Homo sapiens, UniProt P50613); type: functional;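 note: value comes from a kinome-wide kinase profiling panel in which CDK7 is one member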
[30] = target: G protein-coupled receptor kinase 5 (Homo sapiens, UniProt P34947); assay: Navigating the Kinome. Panel member name: GPRK5; type: functional
[31] = target: Dual specificity mitogen-activated protein kinase kinase 1 (Homo sapiens, UniProt Q02750); assay: Navigating the Kinome. Panel member name: MAP2K1; type: functional
[32] = target: Casein kinase I isoform alpha (Homo sapiens, UniProt P48729); type: functional
[33] = target: Cyclin-dependent kinase 8 (Homo sapiens, UniProt P49336); assay: Navigating the Kinome. Panel member name: CDK8; type: functional
[34] = target: Tyrosine-protein kinase Lck (Homo sapiens, UniProt P06239); type: functional;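 note: lck was assayed as one member of a kinase panel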
[35] = target: Calcium/calmodulin-dependent protein kinase type II subunit alpha (Homo sapiens, UniProt Q9UQM7); assay: Navigating the Kinome. Panel member name: CAMK2A; type: functional
[36] = target: Cyclin-dependent kinase 5 (Homo sapiens, UniProt Q00535); type: functional;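 note: CDK5 measured as one member of a kinase profiling panel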
[37] = target: Vascular endothelial growth factor receptor 1 (Homo sapiens, UniProt P17948); type: functional;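 note: measured within a kinome-wide profiling panel, FLT1 as the panel member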
Vascular endothelial growth factor receptor 1, sequence (P17948 whole entry): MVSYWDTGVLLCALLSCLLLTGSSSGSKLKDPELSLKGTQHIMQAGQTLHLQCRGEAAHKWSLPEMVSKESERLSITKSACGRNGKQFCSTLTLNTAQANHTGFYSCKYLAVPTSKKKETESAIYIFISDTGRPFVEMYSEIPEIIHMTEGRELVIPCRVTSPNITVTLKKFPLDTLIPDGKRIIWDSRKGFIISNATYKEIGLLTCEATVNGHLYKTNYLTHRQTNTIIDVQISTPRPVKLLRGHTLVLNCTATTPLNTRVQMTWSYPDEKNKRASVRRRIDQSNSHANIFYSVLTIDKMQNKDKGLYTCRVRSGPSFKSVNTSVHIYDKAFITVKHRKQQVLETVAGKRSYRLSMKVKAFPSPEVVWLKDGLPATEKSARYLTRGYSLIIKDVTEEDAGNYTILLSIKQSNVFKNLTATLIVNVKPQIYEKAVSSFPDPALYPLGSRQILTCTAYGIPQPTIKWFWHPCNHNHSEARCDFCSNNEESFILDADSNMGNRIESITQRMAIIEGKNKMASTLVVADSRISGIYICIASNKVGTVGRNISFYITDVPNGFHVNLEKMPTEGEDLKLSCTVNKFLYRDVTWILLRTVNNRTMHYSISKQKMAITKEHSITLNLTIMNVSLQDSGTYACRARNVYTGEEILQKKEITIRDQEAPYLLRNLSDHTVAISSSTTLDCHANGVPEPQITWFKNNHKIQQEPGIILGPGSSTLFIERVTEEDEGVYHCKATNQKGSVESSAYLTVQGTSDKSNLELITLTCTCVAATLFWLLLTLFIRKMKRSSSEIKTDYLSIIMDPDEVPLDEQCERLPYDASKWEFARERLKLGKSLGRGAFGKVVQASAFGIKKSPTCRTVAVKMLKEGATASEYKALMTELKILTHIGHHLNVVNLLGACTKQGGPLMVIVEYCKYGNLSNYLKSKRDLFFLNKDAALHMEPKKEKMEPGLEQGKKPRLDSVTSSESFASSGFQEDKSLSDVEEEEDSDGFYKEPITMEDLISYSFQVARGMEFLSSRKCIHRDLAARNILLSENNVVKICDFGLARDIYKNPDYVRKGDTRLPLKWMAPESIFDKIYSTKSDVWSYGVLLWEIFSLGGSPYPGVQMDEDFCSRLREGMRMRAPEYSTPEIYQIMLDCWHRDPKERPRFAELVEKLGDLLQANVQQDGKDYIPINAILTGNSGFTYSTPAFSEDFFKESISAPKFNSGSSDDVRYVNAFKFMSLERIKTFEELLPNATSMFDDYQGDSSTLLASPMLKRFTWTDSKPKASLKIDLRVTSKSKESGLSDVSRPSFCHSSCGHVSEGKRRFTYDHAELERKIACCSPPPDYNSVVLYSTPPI

LIM domain kinase 1, sequence (P53667 whole entry, the tested form may be a part): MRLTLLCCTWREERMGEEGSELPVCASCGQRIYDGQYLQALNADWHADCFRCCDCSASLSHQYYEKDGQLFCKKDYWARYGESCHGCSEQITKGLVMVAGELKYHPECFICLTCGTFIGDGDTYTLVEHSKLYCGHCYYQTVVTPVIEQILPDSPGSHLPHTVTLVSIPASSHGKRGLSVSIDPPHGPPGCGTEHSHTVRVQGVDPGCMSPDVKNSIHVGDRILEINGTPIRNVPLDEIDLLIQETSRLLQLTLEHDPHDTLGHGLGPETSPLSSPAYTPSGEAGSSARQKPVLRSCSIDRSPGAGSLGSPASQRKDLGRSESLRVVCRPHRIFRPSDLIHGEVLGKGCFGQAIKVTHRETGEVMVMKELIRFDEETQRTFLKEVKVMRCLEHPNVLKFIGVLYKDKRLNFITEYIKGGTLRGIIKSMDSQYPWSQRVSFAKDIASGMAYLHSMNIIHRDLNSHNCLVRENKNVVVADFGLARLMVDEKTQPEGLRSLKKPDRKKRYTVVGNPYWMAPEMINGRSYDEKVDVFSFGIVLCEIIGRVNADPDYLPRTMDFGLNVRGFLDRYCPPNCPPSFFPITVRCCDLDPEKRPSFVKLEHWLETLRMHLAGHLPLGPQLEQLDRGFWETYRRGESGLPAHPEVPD
Cyclin-dependent kinase 5, sequence (Q00535 whole entry): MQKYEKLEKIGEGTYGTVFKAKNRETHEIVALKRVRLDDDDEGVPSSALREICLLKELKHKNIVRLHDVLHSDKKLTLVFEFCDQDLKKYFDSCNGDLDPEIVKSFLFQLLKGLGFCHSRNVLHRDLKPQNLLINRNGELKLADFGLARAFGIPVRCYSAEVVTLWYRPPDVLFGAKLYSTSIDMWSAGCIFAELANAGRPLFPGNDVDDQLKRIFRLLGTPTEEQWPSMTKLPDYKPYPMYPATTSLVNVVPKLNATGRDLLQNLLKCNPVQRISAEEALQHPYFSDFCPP
G protein-coupled receptor kinase 5, sequence (P34947 whole entry): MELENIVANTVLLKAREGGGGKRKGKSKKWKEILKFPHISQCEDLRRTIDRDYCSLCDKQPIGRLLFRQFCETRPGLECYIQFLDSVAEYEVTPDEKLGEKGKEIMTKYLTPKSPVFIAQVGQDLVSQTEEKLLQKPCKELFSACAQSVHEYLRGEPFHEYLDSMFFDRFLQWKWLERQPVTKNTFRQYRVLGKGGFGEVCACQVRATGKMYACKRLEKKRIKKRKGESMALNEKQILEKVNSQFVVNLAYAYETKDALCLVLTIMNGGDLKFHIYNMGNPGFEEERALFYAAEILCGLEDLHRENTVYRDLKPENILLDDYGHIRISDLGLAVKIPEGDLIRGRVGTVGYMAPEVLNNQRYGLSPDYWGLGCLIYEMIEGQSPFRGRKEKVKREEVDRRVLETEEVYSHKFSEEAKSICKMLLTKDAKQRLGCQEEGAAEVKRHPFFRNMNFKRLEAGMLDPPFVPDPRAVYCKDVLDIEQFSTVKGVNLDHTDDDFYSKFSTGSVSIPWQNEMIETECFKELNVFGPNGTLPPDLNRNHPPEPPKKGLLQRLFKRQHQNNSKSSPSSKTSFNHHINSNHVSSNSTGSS
Dual specificity mitogen-activated protein kinase kinase 1, sequence (Q02750 whole entry, canonical isoform): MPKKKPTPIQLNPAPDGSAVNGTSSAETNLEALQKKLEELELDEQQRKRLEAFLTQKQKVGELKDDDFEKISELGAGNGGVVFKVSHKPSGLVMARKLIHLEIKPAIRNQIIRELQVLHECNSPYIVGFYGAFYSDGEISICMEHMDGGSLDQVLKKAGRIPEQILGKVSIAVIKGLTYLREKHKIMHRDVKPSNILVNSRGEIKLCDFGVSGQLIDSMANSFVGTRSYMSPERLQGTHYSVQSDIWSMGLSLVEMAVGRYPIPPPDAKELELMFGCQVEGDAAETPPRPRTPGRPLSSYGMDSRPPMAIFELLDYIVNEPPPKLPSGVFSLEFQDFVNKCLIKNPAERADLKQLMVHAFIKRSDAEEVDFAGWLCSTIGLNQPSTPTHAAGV
High affinity nerve growth factor receptor, sequence (P04629 whole entry): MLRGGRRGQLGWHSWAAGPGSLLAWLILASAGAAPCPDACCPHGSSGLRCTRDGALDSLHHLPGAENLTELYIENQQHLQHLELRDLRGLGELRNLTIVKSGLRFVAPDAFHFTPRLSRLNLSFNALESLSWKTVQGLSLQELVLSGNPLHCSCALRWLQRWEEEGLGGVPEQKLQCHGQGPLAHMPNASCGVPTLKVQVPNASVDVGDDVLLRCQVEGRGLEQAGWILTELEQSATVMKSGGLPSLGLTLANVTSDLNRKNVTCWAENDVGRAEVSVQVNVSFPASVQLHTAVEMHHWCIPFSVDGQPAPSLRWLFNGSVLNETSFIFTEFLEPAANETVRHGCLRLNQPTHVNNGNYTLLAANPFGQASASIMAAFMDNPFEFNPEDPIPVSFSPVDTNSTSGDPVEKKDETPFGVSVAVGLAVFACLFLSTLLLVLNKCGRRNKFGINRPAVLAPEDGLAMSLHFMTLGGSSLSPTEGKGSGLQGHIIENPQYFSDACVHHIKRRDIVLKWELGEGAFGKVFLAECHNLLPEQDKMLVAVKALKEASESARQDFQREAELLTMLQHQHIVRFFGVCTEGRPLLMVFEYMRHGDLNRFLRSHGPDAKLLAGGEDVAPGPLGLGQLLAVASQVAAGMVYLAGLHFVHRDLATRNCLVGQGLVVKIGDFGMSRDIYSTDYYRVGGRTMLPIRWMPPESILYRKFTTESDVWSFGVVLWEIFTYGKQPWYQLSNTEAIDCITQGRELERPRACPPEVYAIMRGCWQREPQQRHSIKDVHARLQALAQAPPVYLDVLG
Serine/threonine-protein kinase TBK1, sequence (Q9UHD2 whole entry): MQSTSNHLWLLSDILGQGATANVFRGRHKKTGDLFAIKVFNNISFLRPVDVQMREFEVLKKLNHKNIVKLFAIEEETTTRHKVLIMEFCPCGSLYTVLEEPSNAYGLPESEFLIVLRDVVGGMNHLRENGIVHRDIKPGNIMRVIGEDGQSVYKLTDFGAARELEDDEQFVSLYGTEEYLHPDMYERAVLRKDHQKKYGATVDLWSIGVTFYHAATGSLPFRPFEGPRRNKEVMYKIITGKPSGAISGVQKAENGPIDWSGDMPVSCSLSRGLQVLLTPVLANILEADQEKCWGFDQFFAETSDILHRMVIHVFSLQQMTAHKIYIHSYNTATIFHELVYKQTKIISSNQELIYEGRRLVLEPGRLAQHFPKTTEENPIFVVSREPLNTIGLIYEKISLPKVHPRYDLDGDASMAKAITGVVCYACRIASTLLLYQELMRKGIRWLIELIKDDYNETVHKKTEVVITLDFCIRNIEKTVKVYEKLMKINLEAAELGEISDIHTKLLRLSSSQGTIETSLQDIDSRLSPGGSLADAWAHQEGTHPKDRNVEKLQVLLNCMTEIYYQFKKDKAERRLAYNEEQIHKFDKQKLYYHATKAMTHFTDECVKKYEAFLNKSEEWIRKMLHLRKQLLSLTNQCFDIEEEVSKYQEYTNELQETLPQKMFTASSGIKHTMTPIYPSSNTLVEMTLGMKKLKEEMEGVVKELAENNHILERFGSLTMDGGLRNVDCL

Ki [7]	Ki [8]	Ki [9]	Ki [10]	Ki [11]	Ki [12]	Ki [13]	Ki [14]	Ki [15]	Ki [16]	Ki [17]	Ki [18]	Ki [19]	Ki [20]	SMILES	AC50 [1]	AC50 [2]	AC50 [3]	EC50 [4]	AC50 [5]	AC50 [6]	other results
–	–	–	–	–	–	–	–	–	–	–	–	–	–	CCCC(=O)NC(c1cccs1)c1cc(Cl)c2cccnc2c1O (centres undefined)	3.16 µM (active)	1.47 µM (active)	1.42 µM (active)	> 150 µM (inactive)	3.76 µM (active)	4.36 µM (active)	–
1.26 µM (active)	3.16 µM (active)	> 2.51 µM (inactive)	> 3.98 µM (inactive)	> 3.98 µM (inactive)	> 2.51 µM (inactive)	> 2.51 µM (inactive)	0.2 µM (active)	> 3.98 µM (inactive)	> 3.98 µM (inactive)	> 2.51 µM (inactive)	0.794 µM (active)	> 6.31 µM (inactive)	0.316 µM (active)	O=C(Nc1cccc(C2Nc3ccc4ccccc4c3C3C=CCC32)c1)c1ccc(F)cc1 (centres undefined)	–	–	–	–	–	–	Ki [21]: > 6.31 µM (inactive); Ki [22]: 0.398 µM (active); Ki [23]: 1 µM (active); Ki [24]: > 3.16 µM (inactive); Ki [25]: 3.16 µM (active); Ki [26]: 3.16 µM (active); Ki [27]: 0.501 µM (active); Ki [28]: > 3.16 µM (inactive); Ki [29]: 1.26 µM (active); Ki [30]: 1.26 µM (active); Ki [31]: 1 µM (active); Ki [32]: 3.98 µM (active); Ki [33]: 0.794 µM (active); Ki [34]: > 6.31 µM (inactive); Ki [35]: > 3.98 µM (inactive); Ki [36]: > 3.16 µM (inactive); Ki [37]: > 3.98 µM (inactive)
–	–	–	–	–	–	–	–	–	–	–	–	–	–	Cc1ccc(C(=O)OCn2ncc(Cl)c(Cl)c2=O)cc1	5.07 µM (active)	4.28 µM (active)	5.51 µM (active)	3.07 µM (inconclusive)	33.2 µM (active)	3.15 µM (active)	–
> 2.51 µM (inactive)	> 3.16 µM (inactive)	> 2.51 µM (inactive)	> 3.98 µM (inactive)	> 3.98 µM (inactive)	0.398 µM (active)	0.631 µM (active)	> 3.16 µM (inactive)	0.794 µM (active)	3.16 µM (active)	0.794 µM (active)	0.631 µM (active)	3.16 µM (active)	1 µM (active)	Cc1ccc(-c2cc(-c3cc(Br)ccc3O)[nH]c(=O)c2C#N)s1	–	–	–	–	–	–	Ki [21]: > 6.31 µM (inactive); Ki [22]: 0.316 µM (active); Ki [23]: > 2.51 µM (inactive); Ki [24]: 0.631 µM (active); Ki [25]: 2 µM (active); Ki [26]: 0.794 µM (active); Ki [27]: 1.58 µM (active); Ki [28]: > 3.16 µM (inactive); Ki [29]: > 3.98 µM (inactive); Ki [30]: 1 µM (active); Ki [31]: > 3.16 µM (inactive); Ki [32]: > 3.98 µM (inactive); Ki [33]: 1.26 µM (active); Ki [34]: > 6.31 µM (inactive); Ki [35]: 1.58 µM (active); Ki [36]: > 3.16 µM (inactive); Ki [37]: > 3.98 µM (inactive)
